Measured values published in patent US7632815B2, “Use of calmodulin kinase II inhibitors to treat myocardial dysfunction in structural heart disease” (Vanderbilt University, priority 2001, dated 2009).
“Also recorded” adds a separate entry of the source.

How the values were obtained:
[1] = tested on: mice after myocardial infarction surgery; test: Echocardiography 3 weeks after myocardial infarction surgery; assay type: in vivo, mouse; conditions: for LV internal diameter (LVID) during diastole / LV posterior wall (LVPW) wall thickness in diastole: between groups (KN-93 1 and 10, KN-92 30 μmol/Kg, AC3-I transgenic, WT); for cardiac hypertrophy / myocardial contractility (positive inotropic effect): FIG. 7; for Left ventricular (LV) fractional shortening: unanesthetized mice, vs WT or KN-92 30 μmol/Kg
Excerpt: FIGS. 7 A-D. CaMKII inhibition improves contractile function after myocardial infarction surgery. […] P<0.001 by ANOVA and asterisks indicate a significant difference compared to WT using a Bonferroni-corrected t test. B. LV internal diameter (LVID) during diastole is a marker of LV chamber dilation. […] C. LV posterior wall (LVPW) wall thickness in diastole is a measure of LV hypertrophy of the non-infarcted wall.
Myocardial infarction surgery: Surgery is routinely performed at the Vanderbilt mouse physiology core laboratory and is essentially identical to other published reports^18 8.^14 In brief, mice are anesthetized (pentobarbital 33 μg/g and ketamine 33 μg/g, i.p.) and placed on a rodent respirator (tidal vol. 0.5 ml, rate 120 breaths/min), the chest opened with a left parasternal thoracotomy, and the region of the mid-left anterior descending artery ligated with 8-0 suture. The chest is closed (running 5-0 suture), and the animal weaned from the respirator. Wild-type mice typically develop heart failure, as assessed by increased lung wet:dry weights. Sham operations omit the ligation step. Approximately 75% of animals survive surgery with a successfully infarcted anterior wall.

CaMKII isoforms = conditions: cited from earlier work
protein kinase A = conditions: cited from earlier work
CaMKII [2] = test: CaMKII activity assay in heart homogenate with syntide 2; assay type: in vivo, mouse
Method: CaMKII activity assays: CaMKII activity was assayed in AC3-I mice and littermate controls from whole heart (ventricular) homogenate with syntide 2-a synthetic substrate with ˜50 fold selectivity for CaMKII over CaMKIV,^9 using our previously published methods.^1

CaMKII [3] = test: CaMKII inhibitory potency against a synthetic CaMKII substrate; assay type: biochemical; conditions: 'previous studies'
transgenic mice = test: Baseline echocardiography of transgenic mice; assay type: in vivo, mouse
CAN+ transgenic mice = test: Echocardiography in calcineurin (CAN+) transgenic dilated cardiomyopathy model; conditions: AC3-I+/CAN+ vs CAN+ mice
protein kinase C = conditions: cited from earlier work
[4] = diastole or systole, AC3-I transgenic vs WT littermates

## COc1ccc(S(=O)(=O)Nc2ccccc2CN(C)C/C=C/c2ccc(Cl)cc2)cc1 [KN-92]
[1]; 3 weeks after MI surgery
  LV internal diameter (LVID) during diastole: No significant differences
  LV posterior wall (LVPW) wall thickness in diastole: No significant differences

## COc1ccc(S(=O)(=O)N(CCO)c2ccccc2CN(C)C/C=C/c2ccc(Cl)cc2)cc1 [KN-93]
[1]; 3 weeks after MI surgery
  LV internal diameter (LVID) during diastole: No significant differences
  LV posterior wall (LVPW) wall thickness in diastole: No significant differences
[1]
  cardiac hypertrophy: without affecting
  myocardial contractility (positive inotropic effect): increase
[1]; KN-93 1 μmol/Kg body weight daily, 3 weeks after MI surgery
  Left ventricular (LV) fractional shortening: significantly greater
[1]; KN-93 10 μmol/Kg body weight daily, 3 weeks after MI surgery
  Left ventricular (LV) fractional shortening: significantly greater

## KKALHRQEAVDCL [AC3-I]
CaMKII isoforms
  inhibition of CaMKII isoforms: inhibits all CaMKII isoforms
[1]; 3 weeks after MI surgery, AC3-I transgenic compared to all other groups
  Heart rate: significantly slower
[1]; 3 weeks after MI surgery
  LV internal diameter (LVID) during diastole: No significant differences
  LV posterior wall (LVPW) wall thickness in diastole: No significant differences
[1]
  cardiac hypertrophy: without affecting
  myocardial contractility (positive inotropic effect): increase
[1]; transgenically targeted AC3-I expression, after MI surgery, vs WT littermates
  Left ventricular fractional shortening: significantly better; also recorded: significantly greater
Protein kinase A
  activity against protein kinase A: virtually devoid of activity
CaMKII [2]; ventricular homogenates, compared to AC3-C mice and WT littermates
  total CaMKII activity: significantly reduced
CaMKII [2]; whole heart homogenates, AC3-I transgenic mice vs WT littermates
  cardiac CaMKII activity: significantly reduced
CaMKII [3]
  IC50: 0.5 µM
Transgenic mice; baseline, AC3-I transgenic vs WT littermates
  Left ventricular fractional shortening: not different
Transgenic mice; [4]
  Echocardiographic left ventricular dimensions: not significantly different
  Interventricular septal thickness: not different
CAN+ transgenic mice
  heart rates: no significant differences
Protein kinase C
  activity against protein kinase C: virtually devoid of activity

## KLKALHAQERVDCL [AC3-C]
CaMKII [2]; AC3-C transgenic mice, FIG. 6
  total CaMKII activity: high
Transgenic mice; AC3-C transgenic compared to AC3-I mice
  Left ventricular fractional shortening: significantly depressed
Transgenic mice; AC3-C transgenic vs AC3-I mice
  left ventricular internal diameter (LVID) in diastole: significantly greater
